# Laboratory results taken from US10104889B2 (priority 2011, dated 2018).
# Read-outs that look alike come from different tables or passages of the source.
# What was measured:
# Format in all cases: in vivo
# [1] = tested on: Candidatus ‘Liberibacter asiaticus’; settings: for effect on bacteria levels during the evaluation period: 1 μM spray every 15 days for 6 months, 10 HLB infected citrus plants, FIG. 5
# [2] = tested on: Alternaria solani; experiment: Control of disease in tomato plants inoculated with Alternaria solani; settings: 1 μM spray every 15 days for 3 months; for percentage of mortality due to disease: mortality at 3 months
# Description: (§1) In order to evaluate the effect of the brassinosteroid analogue (25R)-3-hydroxy-C-homo-11-oxa-5-espirostan-12-one and a natural brassinosteroid (brassinolide), on the control of other plant diseases, experiments were conducted with tobacco and tomato plants inoculated with Phytophthora parasitica and Alternaria solani, respectively. Both the natural brassinosteroid as the analogue were applied by spraying at a concentration of 1 μM every 15 days for 3 months. The mortality rate was determined at 3 months. […] Hundred plants were used for each treatment. Untreated plants were used as controls.
# [3] = tested on: Phytophthora parasitica; experiment: Control of disease in tobacco plants inoculated with Phytophthora parasitica; settings: 1 μM spray every 15 days for 3 months; for percentage of mortality due to disease: mortality at 3 months
# Description: as §1
# [4] = tested on: genes related to defense against diseases of citrus plants; experiment: Relative expression of defense-related genes in citrus plants by real-time quantitative PCR; settings: Citrus sinensis, 20 μM spray
# Description: Citrus plants (Citrus sinensis) were treated with the brassinosteroid analogue (25R)-3-hydroxy-C-homo-11-oxa-5-espirostan-12-one at 20 μM (Iglesias et al. (1998) Synthetic Communications 28: 75-81). Leaves from five plants were collected at 0, 1, 5, 10, 24 and 48 hours after spray application. Total RNA was extracted from leaves using the RNeasy kit (Qiagen, Valencia, Calif.) according to manufacturer's instructions, which includes a DNase treatment. The cDNAs were synthesized by using oligo-dT primer and reverse transcription kit SuperScript III (Invitrogen, Carlsbad, Calif.) according to manufacturer's instructions. The real-time quantitative PCR was performed using a RotorGene 3000 PCR machine (Corbett, Australia) and QuantiTect SYBR Green PCR kit (Qiagen). The reaction conditions in real-time PCR were: an initial denaturation step at 95° C. for 15 min. followed by denaturation at 95° C. for 15 s, an alignment step for 30 s at 60° C. and an extension step for 30 s at 72° C. for 40 cycles. The analysis was carried out using the RotorGene 3000 software (Corbett, Australia) and five replicates were used for each sample. Experiments were repeated twice.
# [5] = tested on: genes related to the natural defense mechanism of plants against diseases; experiment: Identification of new defense genes activated in treated citrus plants by SuperSAGE; settings: Citrus sinensis, 20 μM spray, leaves 1-48 hours, FIG. 2
# Description: Citrus plants (Citrus sinensis) were treated with the brassinosteroid analogue (25R)-3-hydroxy-C-homo-11-oxa-5-espirostan-12-one at 20 μM. Leaves from five plants were collected at 1, 5, 10, 24 and 48 hours after spray application. Total RNA was extracted from leaves using the RNeasy kit (Qiagen, Valencia, Calif.) according to manufacturer's instructions. The cDNAs were synthesized by using biotinylated oligo-dT primer and reverse transcription kit SuperScript III (Invitrogen, Carlsbad, Calif.) according to manufacturer's instructions. Samples of five citrus plants treated with water and collected during the times listed above were used as control. The identification and characterization of new genes was performed by the construction of two cDNA libraries by the technique of SuperSAGE (Matsumura et al. (2003) PNAS 100: 15718-15723). The control library was the mixture of leaves of plants treated with water at different times and target sample was the mixture of citrus plant leaves treated with the analogue at different times. The new genes related to plant response to the HLB, activated by application of brassinosteroid analogue, were isolated, sequenced and analyzed.
# [6] = tested on: Candidatus ‘Liberibacter asiaticus’; settings: adult plants, natural conditions, 20 mM spray every 15 days, one year, FIG. 3B
# [7] = tested on: Candidatus ‘Liberibacter asiaticus’; settings: HLB infected Citrus sinensis treated for one year, FIG. 4A
# [8] = tested on: Candidatus ‘Liberibacter asiaticus’; settings: 1 μM spray twice a month, area with HLB plants and Diaphorina citri, FIG. 7
# [9] = greenhouse, Citrus sinensis with HLB, 20 μM spray every 15 days, 6 months, FIG. 3A
compound,measurement,setting,value
"CC(C)[C@H](C)[C@@H](O)[C@H](O)[C@@H](C)[C@H]1CC[C@H]2[C@@H]3COC(=O)[C@H]4C[C@H](O)[C@H](O)C[C@]4(C)[C@H]3CC[C@]12C [brassinolide, reference compound]",effect on bacteria levels during the evaluation period,[1],significant reduction in bacteria levels
same,effect on incidence of disease,[2],marked effect in reducing the incidence of diseases
same,percentage of mortality due to disease,[2],12 percentage
same,effect on incidence of disease,[3],marked effect in reducing the incidence of diseases
same,percentage of mortality due to disease,[3],13 percentage
"C[C@@H]1CC[C@@]2(OC1)O[C@H]1C[C@H]3[C@@H]4CC[C@H]5CC(O)CC[C@]5(C)[C@H]4OC(=O)C[C@]3(C)[C@H]1[C@@H]2C (stereo partly drawn) [brassinosteroid analogue, (25R)-3-hydroxy-C-homo-11-oxa-5-espirostan-12-one]",time of highest expression of the rest of the genes,[4]; after application,5 h
same,time of highest level of expression of allene oxide synthase gene,[4]; after application,24 h
same,"activation of all analyzed genes (chitinase, β-1,3-glucanase, glutathione peroxidase, phenylalanine-ammonia lyase, superoxide dismutase, allene oxide synthase)","[4]; leaves 0-48 hours, FIG. 1",activated
same,activation of new genes identified by SuperSAGE,[5],"simultaneously activates genes related to hypersensitive response, salicylic acid and jasmonic acid/ethylene"
same,Absolute concentration of the bacterium after 6 months of treatment,"[1]; 0.001 μM, spray every 15 days for 6 months",522 Copies of the bacteria by reaction
same,Absolute concentration of the bacterium after 6 months of treatment,"[1]; 0.01 μM, spray every 15 days for 6 months",29 Copies of the bacteria by reaction
same,effect on bacteria levels during the evaluation period,[1],significant reduction in bacteria levels
same,"levels of bacteria, application two times a month and weekly compared with a single application per month","[1]; 1 μM, FIG. 6","significantly reduced levels of bacteria, more early"
same,Absolute concentration of the bacterium after 6 months of treatment,"[1]; 1 μM, spray every 15 days for 6 months",1 Copies of the bacteria by reaction
same,Absolute concentration of the bacterium after 6 months of treatment,"[1]; 5 μM, spray every 15 days for 6 months",0 Copies of the bacteria by reaction
same,Absolute concentration of the bacterium after 6 months of treatment,"[1]; 10 μM, spray every 15 days for 6 months",0 Copies of the bacteria by reaction
same,Absolute concentration of the bacterium after 6 months of treatment,"[1]; 20 μM, spray every 15 days for 6 months",0 Copies of the bacteria by reaction
same,Absolute concentration of the bacterium after 6 months of treatment,"[1]; 40 μM, spray every 15 days for 6 months",0 Copies of the bacteria by reaction
same,Absolute concentration of the bacterium after 6 months of treatment,"[1]; 60 μM, spray every 15 days for 6 months",0 Copies of the bacteria by reaction
same,bacteria levels,"[1]; concentrations of 0.01 and up to 60 μM, spray every 15 days for 6 months",drastically reduced
same,"significant reduction in levels of bacteria, from",[1]; [9],second month
same,undetectable levels of bacteria reached from month,[1]; [9],4 month
same,"significant reduction in bacteria levels, from",[6],third months
same,undetectable levels of bacteria reached from months,[6],8 months
same,presence of bacteria in leaves by electron microscopy,[7],presence of bacteria was not observed
same,protection of citrus plants without HLB against infection,[8],protect them against infection from bacteria
same,effect on incidence of disease,[2],marked effect in reducing the incidence of diseases
same,percentage of mortality due to disease,[2],9 percentage
same,effect on incidence of disease,[3],marked effect in reducing the incidence of diseases
same,percentage of mortality due to disease,[3],11 percentage
